Source: paper PMC8288134, “Synthesis, potential antitumor activity, cell cycle analysis, and multitarget mechanisms of novel hydrazones incorporating a 4-methylsulfonylbenzene scaffold: a molecular docking study” (Journal of Enzyme Inhibition and Medicinal Chemistry, 2021)
Read-outs that look alike come from different tables or passages of the source.

Legend:
MOLT-4 = assay: NCI antitumor screen (SRB); type: cell-based; conditions: Homo sapiens, one dose 10 µM, read-out: Growth inhibition percentage (GI%)
PC-3 = assay: NCI antitumor screen (SRB); type: cell-based; conditions: Homo sapiens, one dose 10 µM, read-out: Growth inhibition percentage (GI%)
A549/ATCC = assay: NCI antitumor screen (SRB); type: cell-based; conditions: Homo sapiens, one dose 10 µM, read-out: Growth inhibition percentage (GI%)
IGROV1 = assay: NCI antitumor screen (SRB); type: cell-based; conditions: Homo sapiens, IGROV-1, one dose 10 µM, read-out: Growth inhibition percentage (GI%)
MALME-3M = assay: NCI antitumor screen (SRB); type: cell-based; conditions: Homo sapiens, one dose 10 µM, read-out: Growth inhibition percentage (GI%)
NCI-H522 = assay: NCI antitumor screen (SRB); type: cell-based; conditions: Homo sapiens
HL-60(TB) = assay: cells; type: cell-based, human; conditions: Homo sapiens, HL-60, HL-60(TB); one dose 10 µM; read-out: Growth inhibition percentage (GI%)
K-562 = assay: NCI antitumor screen (SRB); type: cell-based; conditions: Homo sapiens, K562, read-out: Growth inhibition percentage (GI%)
UACC-62 = assay: NCI antitumor screen (SRB); type: cell-based; conditions: Homo sapiens, one dose 10 µM, read-out: Growth inhibition percentage (GI%)
A498 = assay: NCI antitumor screen (SRB); type: cell-based; conditions: Homo sapiens, one dose 10 µM, read-out: Growth inhibition percentage (GI%)
HCT-116 = assay: NCI antitumor screen (SRB); type: cell-based; conditions: Homo sapiens, read-out: Growth inhibition percentage (GI%)
SR = assay: NCI antitumor screen (SRB); type: cell-based; conditions: Homo sapiens, one dose 10 µM, read-out: Growth inhibition percentage (GI%)
CAKI-1 = assay: NCI antitumor screen (SRB); type: cell-based; conditions: Homo sapiens, one dose 10 µM, read-out: Growth inhibition percentage (GI%)
[1] = test system: full panel of 59 cancer cell lines; assay: NCI antitumor screen, full panel; conditions: one dose 10 µM
UACC-257 = assay: NCI antitumor screen (SRB); type: cell-based, human; conditions: Homo sapiens, one dose 10 µM, read-out: Growth inhibition percentage (GI%)
HT29 = assay: NCI antitumor screen (SRB); type: cell-based; conditions: Homo sapiens, HT-29, one dose 10 µM, read-out: Growth inhibition percentage (GI%)
MDA-MB-468 = assay: NCI antitumor screen (SRB); type: cell-based; conditions: Homo sapiens, one dose 10 µM, read-out: Growth inhibition percentage (GI%)
UO-31 = assay: NCI antitumor screen (SRB); type: cell-based, human; conditions: Homo sapiens, UO-31, UO-31; one dose 10 µM; read-out: Growth inhibition percentage (GI%)
HOP-62 = assay: NCI antitumor screen (SRB); type: cell-based; conditions: Homo sapiens; HOP-62; one dose 10 µM; read-out: Growth inhibition percentage (GI%)
SNB-75 = assay: NCI antitumor screen (SRB); type: cell-based; conditions: Homo sapiens, one dose 10 µM, read-out: Growth inhibition percentage (GI%)
NCI-H226 = assay: NCI antitumor screen (SRB); type: cell-based; conditions: Homo sapiens, one dose 10 µM, read-out: Growth inhibition percentage (GI%)
T-47D = assay: NCI antitumor screen (SRB); type: cell-based; conditions: Homo sapiens, T47D, one dose 10 µM, read-out: Growth inhibition percentage (GI%)
SK-MEL-28 = assay: NCI antitumor screen (SRB); type: cell-based, human; conditions: Homo sapiens, SK-MEL-28, SK-MEL-28; one dose 10 µM; read-out: Growth inhibition percentage (GI%)
SF-268 = assay: NCI antitumor screen (SRB); type: cell-based; conditions: Homo sapiens, one dose 10 µM, read-out: Growth inhibition percentage (GI%)
OVCAR-8 = assay: NCI antitumor screen (SRB); type: cell-based; conditions: Homo sapiens, one dose 10 µM, read-out: Growth inhibition percentage (GI%)
EKVX = assay: NCI antitumor screen (SRB); type: cell-based; conditions: Homo sapiens, one dose 10 µM, read-out: Growth inhibition percentage (GI%)
SK-OV-3 = assay: NCI antitumor screen (SRB); type: cell-based; conditions: Homo sapiens, one dose 10 µM, read-out: Growth inhibition percentage (GI%)
SF-295 = assay: NCI antitumor screen (SRB); type: cell-based; conditions: Homo sapiens, one dose 10 µM, read-out: Growth inhibition percentage (GI%)
PRMI-8226 = assay: NCI antitumor screen (SRB); type: cell-based; conditions: Homo sapiens, one dose 10 µM, read-out: Growth inhibition percentage (GI%)
DU-145 = assay: NCI antitumor screen (SRB); type: cell-based; conditions: Homo sapiens, one dose 10 µM, read-out: Growth inhibition percentage (GI%)
COLO 205 = assay: NCI antitumor screen (SRB); type: cell-based; conditions: Homo sapiens, one dose 10 µM, read-out: Growth inhibition percentage (GI%)
MDA-MB-231/ATCC = assay: NCI antitumor screen (SRB); type: cell-based; conditions: Homo sapiens, one dose 10 µM, read-out: Growth inhibition percentage (GI%)
LOX IMVI = assay: NCI antitumor screen (SRB); type: cell-based; conditions: Homo sapiens, one dose 10 µM, read-out: Growth inhibition percentage (GI%)
ACHN = assay: NCI antitumor screen (SRB); type: cell-based; conditions: Homo sapiens, one dose 10 µM, read-out: Growth inhibition percentage (GI%)
KM12 = assay: NCI antitumor screen (SRB); type: cell-based; conditions: Homo sapiens, one dose 10 µM, read-out: Growth inhibition percentage (GI%)
M14 = assay: NCI antitumor screen (SRB); type: cell-based; conditions: Homo sapiens, one dose 10 µM, read-out: Growth inhibition percentage (GI%)
[2] = test system: ovarian cancer tumour cell lines; assay: NCI antitumor screen, subpanel; type: cell-based; conditions: 10 µM
HCC-2998 = assay: NCI antitumor screen (SRB); type: cell-based; conditions: Homo sapiens, one dose 10 µM, read-out: Growth inhibition percentage (GI%)
RXF 393 = assay: NCI antitumor screen (SRB); type: cell-based; conditions: Homo sapiens, one dose 10 µM, read-out: Growth inhibition percentage (GI%)
OVCAR-5 = assay: NCI antitumor screen (SRB); type: cell-based; conditions: Homo sapiens, one dose 10 µM, read-out: Growth inhibition percentage (GI%)
SF-539 = assay: NCI antitumor screen (SRB); type: cell-based; conditions: Homo sapiens, one dose 10 µM, read-out: Growth inhibition percentage (GI%)
TK-10 = assay: NCI antitumor screen (SRB); type: cell-based; conditions: Homo sapiens, one dose 10 µM, read-out: Growth inhibition percentage (GI%)
MDA-MB-435 = assay: NCI antitumor screen (SRB); type: cell-based; conditions: Homo sapiens, one dose 10 µM, read-out: Growth inhibition percentage (GI%)
BT-549 = assay: NCI antitumor screen (SRB); type: cell-based; conditions: Homo sapiens, one dose 10 µM, read-out: Growth inhibition percentage (GI%)
HS 578 T = assay: NCI antitumor screen (SRB); type: cell-based; conditions: Homo sapiens, one dose 10 µM, read-out: Growth inhibition percentage (GI%)
OVCAR-3 = assay: NCI antitumor screen (SRB); type: cell-based; conditions: Homo sapiens, one dose 10 µM, read-out: Growth inhibition percentage (GI%)
OVCAR-4 = assay: NCI antitumor screen (SRB); type: cell-based; conditions: Homo sapiens, one dose 10 µM, read-out: Growth inhibition percentage (GI%)
SNB-19 = assay: NCI antitumor screen (SRB); type: cell-based; conditions: Homo sapiens, one dose 10 µM, read-out: Growth inhibition percentage (GI%)
CCRF-CEM = assay: NCI antitumor screen (SRB); type: cell-based; conditions: Homo sapiens, one dose 10 µM, read-out: Growth inhibition percentage (GI%)
SN12C = assay: NCI antitumor screen (SRB); type: cell-based; conditions: Homo sapiens, one dose 10 µM, read-out: Growth inhibition percentage (GI%)
NCI-H460 = assay: NCI antitumor screen (SRB); type: cell-based; conditions: Homo sapiens, one dose 10 µM, read-out: Growth inhibition percentage (GI%)
SW-620 = assay: NCI antitumor screen (SRB); type: cell-based; conditions: Homo sapiens, one dose 10 µM, read-out: Growth inhibition percentage (GI%)
NCI-H23 = assay: NCI antitumor screen (SRB); type: cell-based; conditions: Homo sapiens, one dose 10 µM, read-out: Growth inhibition percentage (GI%)
MCF7 = assay: NCI antitumor screen (SRB); type: cell-based; conditions: Homo sapiens, one dose 10 µM, read-out: Growth inhibition percentage (GI%)
U251 = assay: NCI antitumor screen (SRB); type: cell-based; conditions: Homo sapiens, U-251, one dose 10 µM, read-out: Growth inhibition percentage (GI%)
HCT-15 = assay: NCI antitumor screen (SRB); type: cell-based; conditions: Homo sapiens, one dose 10 µM, read-out: Growth inhibition percentage (GI%)
786-0 = assay: NCI antitumor screen (SRB); type: cell-based; conditions: Homo sapiens, one dose 10 µM, read-out: Growth inhibition percentage (GI%)
NCI/ADR-RES = assay: NCI antitumor screen (SRB); type: cell-based; conditions: Homo sapiens, one dose 10 µM, read-out: Growth inhibition percentage (GI%)

With `CS(=O)(=O)c1ccc(C(=O)NN=Cc2ccc(Cl)c(Cl)c2)cc1` [Compound 18, N'-(3,4-Dichlorobenzylidene)-4-(methylsulfonyl)benzohydrazide] the inhibition at 10 µM (MOLT-4) was 31.7%, the inhibition at 10 µM (PC-3) was 10.3% and the inhibition at 10 µM (A549/ATCC) was 20.1%. The inhibition at 10 µM (IGROV1) was 15%, the inhibition at 10 µM (MALME-3M) was 12.2% and the inhibition at 10 µM (NCI-H522; NCI-H522, read-out: Growth inhibition percentage (GI%)) was 17.2%. It also gave an inhibition at 10 µM (HL-60(TB)) of 30.6%, an inhibition at 10 µM (K-562) of 17.7% and an inhibition at 10 µM (UACC-62) of 11.2%. For the same compound, the inhibition at 10 µM (A498) was 16%, the inhibition at 10 µM (HCT-116) was 12.7% and the inhibition at 10 µM (SR) was 24.5%. The inhibition at 10 µM (CAKI-1) was 10.1%, the “PCE: positive cytotoxic effect (number of cell lines with GI 10 to 100% / total number of cell lines)” value [1] was 14/59 and the inhibition at 10 µM (UACC-257; UACC-257) was 21.8%.
`CS(=O)(=O)c1ccc(C(=O)NN=Cc2ccc(Cl)cc2Cl)cc1` [Compound 17, N'-(2,4-Dichlorobenzylidene)-4-(methylsulfonyl)benzohydrazide] gave an inhibition at 10 µM (A549/ATCC) of 13.7%, an inhibition at 10 µM (HT29) of 11.3% and an inhibition at 10 µM (NCI-H522; NCI-H522, one dose 10 µM, read-out: Growth inhibition percentage (GI%)) of 25%. For the same compound, the inhibition at 10 µM (MDA-MB-468) was 18.1%, the inhibition at 10 µM (UO-31) was 12.7% and the inhibition at 10 µM (HOP-62) was 10.2%. For the same compound, the inhibition at 10 µM (SNB-75) was 10.9%, the inhibition at 10 µM (NCI-H226) was 13.6% and the “PCE: positive cytotoxic effect (number of cell lines with GI 10 to 100% / total number of cell lines)” value [1] was 9/59. For the same compound, the inhibition at 10 µM (UACC-257; UACC-257, UACC-257) was 29.4%.
`Cc1ccc(NC(=O)c2ccc(CN3CCN(C)CC3)cc2)cc1Nc1nccc(-c2cccnc2)n1` [Imatinib, imatinib, reference compound] was tested, and the inhibition at 10 µM (T-47D) was 18.6%, the inhibition at 10 µM (SK-MEL-28) was < 10% and the inhibition at 10 µM (SF-268) was < 10%. For the same compound, the inhibition at 10 µM (OVCAR-8) was < 10%, the inhibition at 10 µM (EKVX) was 15.7% and the inhibition at 10 µM (MOLT-4) was 18%. For the same compound, the inhibition at 10 µM (SK-OV-3) was < 10%, the inhibition at 10 µM (SF-295) was 15.1% and the inhibition at 10 µM (PRMI-8226) was 12.6%. For the same compound, the inhibition at 10 µM (DU-145) was 14.4%, the inhibition at 10 µM (PC-3) was 10.6% and the inhibition at 10 µM (COLO 205) was < 10%. The inhibition at 10 µM (A549/ATCC) was < 10%, the inhibition at 10 µM (IGROV1) was < 10% and the inhibition at 10 µM (MDA-MB-231/ATCC) was 11.2%. The inhibition at 10 µM (LOX IMVI) was 11.6%, the inhibition at 10 µM (ACHN) was < 10% and the inhibition at 10 µM (HT29) was 47.1%. The inhibition at 10 µM (MALME-3M) was < 10%, the inhibition at 10 µM (KM12) was < 10% and the inhibition at 10 µM (M14) was < 10%. The “GI (range over subpanel cell lines)” value [2] was < 10.0%, the inhibition at 10 µM (MDA-MB-468) was 29.1% and the inhibition at 10 µM (HCC-2998) was < 10%. For the same compound, the inhibition at 10 µM (UO-31) was < 10%, the inhibition at 10 µM (RXF 393) was < 10% and the inhibition at 10 µM (HL-60(TB)) was < 10%. For the same compound, the inhibition at 10 µM (UACC-62) was < 10%, the inhibition at 10 µM (A498) was 13.7% and the inhibition at 10 µM (OVCAR-5) was < 10%. For the same compound, the inhibition at 10 µM (SF-539) was 24.5%, the inhibition at 10 µM (TK-10) was < 10% and the inhibition at 10 µM (MDA-MB-435) was < 10%. For the same compound, the inhibition at 10 µM (SNB-75) was < 10%, the inhibition at 10 µM (BT-549) was < 10% and the inhibition at 10 µM (HCT-116) was 18.6%. The inhibition at 10 µM (HS 578 T) was < 10%, the inhibition at 10 µM (OVCAR-3) was < 10% and the inhibition at 10 µM (OVCAR-4) was < 10%. For the same compound, the inhibition at 10 µM (SNB-19) was < 10%, the inhibition at 10 µM (CCRF-CEM) was < 10% and the inhibition at 10 µM (SN12C) was < 10%. The inhibition at 10 µM (NCI-H226) was 10.6%, the inhibition at 10 µM (SR) was 14.6% and the inhibition at 10 µM (NCI-H460) was < 10%. For the same compound, the inhibition at 10 µM (SW-620) was < 10%, the inhibition at 10 µM (NCI-H23) was 17.1% and the inhibition at 10 µM (MCF7) was < 10%. The inhibition at 10 µM (CAKI-1) was < 10%, the inhibition at 10 µM (U251) was 10.6% and the “percentage mean growth (MG)” value ([1]; mean over cell lines) was 92.62%. For the same compound, the inhibition at 10 µM (HCT-15) was 11.5%, the inhibition at 10 µM (UACC-257; UACC-257, UACC-257) was < 10% and the inhibition at 10 µM (786-0) was < 10%. For the same compound, the inhibition at 10 µM (NCI/ADR-RES) was < 10%.
